Data: patent US6194416A, “Heterocyclic compounds and their use” (Eli Lilly and Company, priority 1997, dated 2001)
Read-outs that look alike come from different tables or passages of the source.

Key:
nicotinic receptors = assay: Nicotinic channel receptor binding: [3H]-cystine binding to crude synaptic membranes from whole rat brain; conditions: 1.25 nM [3H-cystine], about 60 min, about 4° C.
Method: Nicotinic Channel Receptor Binding Protocol:
The activity of the compounds claimed herein at the nicotinic receptor can be accomplished by the following assay.
Binding of […] to nicotinic receptors was accomplished using crude synaptic membrane preparations from whole rat brain (Pabreza et al. Molecular Pharmacol., 1990, 39:9). Washed membranes were stored at about -80° C. prior to use. Frozen aliquots were slowly thawed and resuspended in 20 volumes of buffer (containing: […] NaCl, 5 mM KCl, 2 mM MgCl2, 2 mM Tris-Cl, ph 7.4 @4° C.). After centrifuging at 20,000×g for 15 minutes, the pellets were resuspended in about 30 volumes of buffer. Homogenate (containing about 125-150 ug protein) was added to tubes containing concentrations of test compound and [^3 H-cystine] (1.25 nM) in a final volume of 500 uL. Samples were incubated for about 60 minutes at about 4° C., then rapidly filtered through GF/B filters presoaked in 0.5% polyethylimine using 3×4 mL of ice cold buffer. The filters were counted.

[1] = target: T1, muscarinic receptors (M1-site, pirenzepine sensitive site) (Rattus norvegicus, UniProt P08482); assay: Inhibition of 3HPRZ (pirenzepine, [N-methyl-3H]) binding to rat cerebral cortex membranes; parameters: species or system male Wistar rats
T1 construct: from tissue; host or cells: cerebral cortex membranes of male Wistar rats
T1 sequence (P08482 1-460): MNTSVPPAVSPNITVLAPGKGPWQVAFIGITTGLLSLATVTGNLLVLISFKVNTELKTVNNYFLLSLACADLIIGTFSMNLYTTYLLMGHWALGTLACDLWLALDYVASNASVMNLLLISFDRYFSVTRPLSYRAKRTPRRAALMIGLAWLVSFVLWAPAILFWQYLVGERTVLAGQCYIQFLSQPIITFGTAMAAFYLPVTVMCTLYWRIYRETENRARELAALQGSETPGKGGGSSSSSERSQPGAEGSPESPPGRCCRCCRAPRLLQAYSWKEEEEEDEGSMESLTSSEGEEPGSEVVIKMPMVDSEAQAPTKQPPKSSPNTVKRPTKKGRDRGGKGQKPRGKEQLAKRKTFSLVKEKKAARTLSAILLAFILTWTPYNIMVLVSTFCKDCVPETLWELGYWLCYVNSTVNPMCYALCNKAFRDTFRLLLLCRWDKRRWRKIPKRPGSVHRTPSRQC
Method: Furthermore the pharmacological properties of the compounds of the invention can also be illustrated by determining their capability to inhibit ^3 HPRZ (pirenzepine, [N-methyl-^3 H]) binding to rat cerebral cortex membranes.
Pirenzepine binds selectively to subtype of muscarinic receptors. Historically the type is named the M1 -site, whereas pirenzepine sensitive site would be more appropriate.
(§1) All preparations are performed at 0-4° C. unless otherwise indicated. Fresh cortex (0.1-19) from male Wistar rats (150-200 g) is homogenized for 5-10 s in 10 mL 20 mM Hepes pH: 7.4, with an Ultra-Turrax homogenizer. The homogenizer is rinsed with 2×10 mL of buffer and the combined suspension centrifuged for 15 min. at 40,000×g. The pellet is washed three times with buffer. In each step the pellet is homogenized as before in 3×10 mL of buffer and centrifuged for 10 min. at 40,000×g.
The final pellet is homogenized in 20 MM Hepes pH: 7.4 (100 mL per g of original tissue) and used for binding assay. Aliquots of 0.5 mL is added 20 μL of test solution and 25 μL of ^3 HPRZ (1.0 nM, final conc.), mixed and incubated for 60 min. at 20° C. Non-specific binding is determined in triplicate using atropine (1.0 μg/mL, final conc.) as the test substance. After incubation samples are added 5 mL of ice-cold buffer and poured directly onto Whatman GF/C glass fiber filters under suction and immediately washed 2 times with 5 mL of ice-cold buffer.
The amount of radioactivity on the filters are determined by conventional liquid scintillation counting. Specific binding is total binding minus non-specific binding.
Test substances are dissolved in 10 mL water, at a concentration of 0.22 mg/mL. 25-75% inhibition of specific binding must be obtained before calculation of IC50.
The test value will be given as IC50 (the concentration (nM) of the test substance which inhibits the specific binding of ^3 HPRZ by 50%). IC50 =(applied test substance concentration) x(Cx /Co -Cx)nM where Co is specific binding in control assays and Cx is the specific binding in the test assay. (The calculations assume normal mass-action kinetics).

[2] = target: muscarinic acetylcholine receptors; assay: Inhibition of specific binding of 3H-Oxotremorine-M (3H-Oxo) to rat cortex membranes; parameters: species or system male Wistar rats; conditions: 1.0 nM 3H-Oxotremorine, 30 min, 25° C., pH 7.4
Description: The pharmacological properties of the compounds of the invention can be illustrated by determining their capability to inhibit the specific binding of ^3 H-Oxotremorine-M (^3 H-Oxo). Birdsdall N. J. M., Hulme E. C., and Burgen A. S. V. (1980). "The Character of Muscarinic Receptors in Different Regions of the Rat Brain". Proc. Roy. Soc. London (Series B) 207,1.
^3 H-Oxo labels muscarinic receptor in the CNS (with a preference for agonist domains of the receptors). Three different sites are labeled by ^3 H-Oxo. […] Using the present experimental conditions only the high and medium affinity sites are determined.
The inhibitory effects of compounds on ^3 H-oxo binding reflects the affinity for muscarinic acetylcholine receptors.
as §1, with “(0.1-1 g)” for “(0.1-19)”, “(150-250” for “(150-200”, “[…]” for “mM”, “10” for “2×10”, “2×10” for “3×10”
The final pellet is homogenized in 20 mM Hepes pH: 7.4 (100 mL per g of original tissue) and used for binding assay. Aliquots of 0.5 mL is added 25 μL of test solution and 25 μL of ^3 H-Oxotremorine (1.0 nM, final concentration) mixed and incubated for 30 min. at 25° C. Non-specific binding is determined in triplicate using arecoline (1 μg/mL, final concentration) as the test substance. After incubation samples are added 5 mL of ice-cold buffer and poured directly onto Whatman GF/C glass fiber filters under suction and immediately washed 2 times with 5 mL of ice-cold buffer. The amount of radioactivity on the filters are determined by conventional liquid scintillation counting. Specific binding is total binding minus non specific binding.
Test substances are dissolved in 10 mL water (if necessary heated on a steam-bath for less than 5 min.) at a concentration of 2.2 mg/mL. 25-75% inhibition of specific binding must be obtained before calculation of IC50. The test value will be given as IC50 (the concentration (nM) of the test substance which inhibits the specific binding of ^3 H-oxo by 50%). IC50 =(applied test substance concentration) x([…])nM where Co is specific binding in control assays and Cx is the specific binding in the test assay. (The calculations assume normal mass-action kinetics).

[3] = rat cerebral cortex, 1.0 nM 3HPRZ, 60 min, 20° C., pH 7.4, read-out: 3HPRZ IC50

SMILES | Ki (nicotinic receptors) | IC50 [2] | IC50 [1, 3] | IC50 [1]
CCCCSc1nccnc1OC1CN2CCC1CC2 (racemic) [Compound 6, (+/-)-3-Butylthio-2-(1-azabicyclo[2.2.2]octyl-3-oxy)pyrazine] | 5490 nM |  |  | 
Clc1nccnc1O[C@H]1CN2CCC[C@@H]1C2 (relative stereo) [Compound 19, 3-Chloro-2-[endo-(+,-)-6-(1-azabicyclo[3.2.1]octyloxy)]-pyrazine] | 2780 nM |  |  | 
CCCCOc1nccnc1O[C@@H]1CN2CCC[C@H]1C2 (relative stereo) [Compound 23, 3-(1-butyloxy)-2-[endo-(+,-)-6-(1-azabicyclo[3.2.1]octyloxy)]-pyrazine] |  | 4.9 nM |  | 2.7 nM
CCCSc1nccnc1O[C@@H]1CN2CCC[C@H]1C2 (relative stereo) [Compound 29, (±)-endo-2-Propylthio-3-(1-azabicyclo[3.2.1]octyl-6-oxy)pyrazine] |  | 1.7 nM | 0.68 nM | 
CC(C)CSc1nccnc1O[C@@H]1CN2CCC[C@H]1C2 (relative stereo) [Compound 31, (±)-endo-2-(2-Methylpropylthio)-3-(1-azabicyclo[3.2. 1]octyl-6-oxy)pyrazine] |  | 3.4 nM | 1.7 nM | 
CCSc1nccnc1O[C@@H]1CN2CCC[C@H]1C2 (relative stereo) [Compound 32, (±)-endo-2-Ethylthio-3-(1-azabicyclo[3.2.1]octyl-6-oxy)pyrazine] |  | 3.9 nM | 4 nM | 
FC(F)(F)CSc1nccnc1O[C@@H]1CN2CCC[C@H]1C2 (relative stereo) [Compound 33, (±)-endo-2-(2,2,2,-Trifluoroethylthio)-3-(1-azabicyclo[3.2. 1]octyl-6-oxy)pyrazine] |  | 1.5 nM | 0.7 nM | 
FC(F)(F)CCCSc1nccnc1O[C@@H]1CN2CCC[C@H]1C2 (relative stereo) [Compound 35, (±)-endo-2-(4,4,4-Trifluorobutylthio)-3-(1-azabicyclo[3.2. 1]octyl-6-oxy)pyrazine] |  | 3.2 nM | 0.54 nM | 
CC(C)CCSc1nccnc1O[C@@H]1CN2CCC[C@H]1C2 (relative stereo) [Compound 37, (±)-endo-2-(3-Methylbutylthio)-3-(1-azabicyclo[3.2. 1]octyl-6-oxy)pyrazine] |  | 1.3 nM | 0.76 nM | 
FC(F)(F)Oc1ccc(CSc2nccnc2O[C@@H]2CN3CCC[C@H]2C3)cc1 (relative stereo) [Compound 38, (±)-endo-2-(4-Trifluoromethoxybenzylthio)-3-(1-azabicyclo[3.2. 1]octyl-6-oxy)pyrazine] |  | 6.2 nM | 3.3 nM | 
C(=Cc1ccccc1)CSc1nccnc1O[C@@H]1CN2CCC[C@H]1C2 (relative stereo) [Compound 42, (±)-endo-2-(3-Phenyl-2-propenylthio)-3-(1-azabicyclo[3.2. 1]octyl-6-oxy)pyrazine] |  | 9.1 nM | 4.8 nM | 
CC(C)=CCCSc1nccnc1O[C@@H]1CN2CCC[C@H]1C2 (relative stereo) [Compound 43, (±)-endo-2-(4-Methyl-3-pentenylthio)-3-(1-azabicyclo[3.2. 1]octyl-6-oxy)pyrazine] |  | 8.1 nM | 2.2 nM | 
CCCCSc1nccnc1OCCN(C)C [Compound 17] | 21400 nM |  |  | 

More lines, main results first:

Ki (nicotinic receptors) | IC50 [2] | IC50 [1, 3] | SMILES | IC50 [1]
 | 2.2 nM | 0.54 nM | CCCCSc1nccnc1O[C@@H]1CN2CCC[C@H]1C2 (relative stereo) [Compound 24, 3-(1-butylthio)-2-[endo-(+,-)-6-(1-azabicyclo[3.2.1]octyloxy)]-pyrazine] | 
 | 4.4 nM | 0.82 nM | CCCCCSc1nccnc1O[C@@H]1CN2CCC[C@H]1C2 (relative stereo) [Compound 30, (±)-endo-2-Pentylthio-3-(1-azabicyclo[3.2.1]octyl-6-oxy)pyrazine] | 
 | 2 nM | 0.66 nM | C/C=C/CSc1nccnc1O[C@@H]1CN2CCC[C@H]1C2 (relative stereo) [Compound 34, (±)-endo-2-(trans-2-Butenylthio)-3-(1-azabicyclo[3.2. 1]octyl-6-oxy)pyrazine] | 
 | 0.34 nM | 5.8 nM | C=CCSc1nccnc1O[C@@H]1CN2CCC[C@H]1C2 (relative stereo) [Compound 36, (±)-endo-2-(2-propenylthio)-3-(1-azabicyclo[3.2.1]octyl-6-oxy)pyrazine] | 
 | 10 nM | 80 nM | CCCSc1cncc(O[C@@H]2CN3CCC[C@H]2C3)n1 (relative stereo) [Compound 39, (±)-endo-2-Propylthio-6-(1-azabicyclo[3.2.1]octyl-6-oxy)pyrazine] | 
 | 60 nM | 17 nM | FC(F)(F)CSc1cncc(O[C@@H]2CN3CCC[C@H]2C3)n1 (relative stereo) [Compound 40, (±)-endo-2-(2.2.2-Trifluoroethylthio)-6-(1-azabicyclo[3.2. 1]octyl-6-oxy)pyrazine] | 
 | 3.2 nM | 1.6 nM | COCCSc1nccnc1O[C@@H]1CN2CCC[C@H]1C2 (relative stereo) [Compound 41, (±)-endo-2-(2-Methoxyethylthio)-3-(1-azabicyclo[3.2. 1]octyl-6-oxy)pyrazine] | 
580 nM |  |  | CCCCSc1nccnc1OCC[N+](C)(C)C [Compound 18, 3-(1-Butylthio)-2-(2-(trimethylamino)ethoxy)pyrazine iodide] | 
130 nM |  |  | CN(C)CCOc1cnccn1 [Compound 26, 2-(2-Dimethylaminoethoxy)pyrazine] | 
